Source: US7880014B2, “Angiotensin II receptor antagonists” (Merck Sharp & Dohme Corp., priority 2006, dated 2011)

What was measured:
rabbit aortic slices = experiment: vessel relaxation assay (in vitro, tissue-based, rabbit aortic slices); type: cell-based
CYP3A4 = biological target: T1, CYP3A4 (Homo sapiens, UniProt P08684); experiment: CYP3A4 Time-Dependent Inhibition Assay (pooled human liver microsomes, testosterone 6β-hydroxylation); type: in vitro ADME; settings: human liver microsomes 1 mg/mL, preincubation 5 to 30 min
T1 construct: Pooled human liver microsomes (1 mg/mL) were preincubated at 37° C; from tissue; host or cells: pooled human liver microsomes
Description: The incubation mixtures were diluted 10-fold with the same buffer containing 250 μM testosterone and an NADPH-generating system. The incubation was continued for an additional 10 min to monitor the extent of testosterone 6β-hydroxylation. The first order rate constants (kobs) for inactivation at 10 and 50 μM were calculated from the negative slope of the lines by linear regression analysis of the natural logarithm of the remaining activity as a function of time using KaleidaGraph Synergy Software (Reading, Pa.).

T1 sequence (P08684 whole entry): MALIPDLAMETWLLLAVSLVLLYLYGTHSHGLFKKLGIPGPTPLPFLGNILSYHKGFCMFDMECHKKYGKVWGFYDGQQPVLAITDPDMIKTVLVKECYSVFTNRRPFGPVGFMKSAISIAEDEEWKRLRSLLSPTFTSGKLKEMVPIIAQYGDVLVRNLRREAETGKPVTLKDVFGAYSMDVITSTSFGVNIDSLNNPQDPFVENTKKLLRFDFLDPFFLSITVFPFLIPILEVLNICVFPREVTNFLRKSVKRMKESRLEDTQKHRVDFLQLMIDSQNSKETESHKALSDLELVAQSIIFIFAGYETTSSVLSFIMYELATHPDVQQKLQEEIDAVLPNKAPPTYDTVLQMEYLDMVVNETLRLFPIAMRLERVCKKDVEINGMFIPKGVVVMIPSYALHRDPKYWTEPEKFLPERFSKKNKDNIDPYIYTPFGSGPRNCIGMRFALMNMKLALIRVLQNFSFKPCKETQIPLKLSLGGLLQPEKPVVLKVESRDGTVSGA

In the case of `CCCCc1nc(Cl)c(C(=O)OC(C)OC(=O)OCCCC[C@H](CO[N+](=O)[O-])O[N+](=O)[O-])n1Cc1ccc(-c2ccccc2-c2nnn[nH]2)cc1` (single isomer, unassigned) [Compound 3], the EC50 (rabbit aortic slices) is reported as 1300 nM, the “Rate Constant (kobs) at 10 μM” value (CYP3A4) is reported as ~0.077 min⁻¹ and the “Rate Constant (kobs) at 50 μM” value (CYP3A4) is reported as 0.076 min⁻¹.
With `CCCCc1nc(Cl)c(C(=O)OC(C)OC(=O)OCCCC[C@H](CO[N+](=O)[O-])O[N+](=O)[O-])n1Cc1ccc(-c2ccccc2-c2nnn[nH]2)cc1` (single isomer, unassigned) [Compound 2] the “Rate Constant (kobs) at 10 μM” value (CYP3A4) was 0.026 min⁻¹ and the “Rate Constant (kobs) at 50 μM” value (CYP3A4) was 0.037 min⁻¹.
